Entries after “also recorded” stand apart in the source; their conditions may differ.
Columns and labels:
protein kinase C = details: in words; cited from earlier work
rat liver aldolase = biological target: T1, rat liver aldolase (Rattus norvegicus, UniProt Q8CHN6); experiment: in vitro biological evaluation: inhibition of rat liver aldolase; format: biochemical; details: read-out: IC50, inhibited rat liver aldolase
T1 construct: from tissue; host or cells: rat liver
T1 sequence (Q8CHN6 1-568): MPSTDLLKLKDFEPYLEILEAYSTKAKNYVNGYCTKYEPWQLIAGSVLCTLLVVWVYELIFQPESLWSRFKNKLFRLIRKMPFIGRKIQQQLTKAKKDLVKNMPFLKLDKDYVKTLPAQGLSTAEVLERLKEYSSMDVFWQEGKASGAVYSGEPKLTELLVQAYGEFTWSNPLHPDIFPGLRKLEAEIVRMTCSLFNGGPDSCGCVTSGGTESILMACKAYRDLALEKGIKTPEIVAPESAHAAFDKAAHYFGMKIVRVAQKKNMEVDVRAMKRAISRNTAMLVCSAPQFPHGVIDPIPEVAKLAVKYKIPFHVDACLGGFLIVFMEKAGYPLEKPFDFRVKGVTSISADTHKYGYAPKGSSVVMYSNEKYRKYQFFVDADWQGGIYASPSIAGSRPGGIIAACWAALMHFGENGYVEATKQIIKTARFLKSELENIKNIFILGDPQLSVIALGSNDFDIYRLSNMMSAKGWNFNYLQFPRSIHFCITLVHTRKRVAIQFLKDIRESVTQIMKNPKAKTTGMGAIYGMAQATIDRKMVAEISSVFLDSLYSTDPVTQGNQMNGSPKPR

S-1-P aldolase [1] = experiment: time dependent (irreversible) inhibition of S-1-P aldolase; format: biochemical; details: mode of inhibition, in words
Swiss 3T3 fibroblasts = details: in words; cited from earlier work
[2] = system: permeabilized smooth muscle cells; details: IP3-sensitive and IP3-insensitive pools; cited from earlier work
S-1-P aldolase [3] = details: mode of inhibition, in words; cited from earlier work
permeabilized cells = details: cellular level / environments with other cellular components, e.g.; cited from earlier work

CCCCCCCCCCCCC/C=C/[C@@H](O)[C@@H](N)CO [sphingosine]
inhibition of protein kinase C (protein kinase C): potent and specific inhibitor

C=CC(N)COP(=O)(O)O (stereo not shown) [Example 5, 2-vinyl ethanolamine-O-phosphate]
IC50 (rat liver aldolase): 1100 nM
time dependent (irreversible) inhibitor of S-1-P aldolase (S-1-P aldolase [1]): time dependent (irreversible) inhibitor

CCCCCCCCCCCCCCCC(O)C(COP(=O)(O)O)NN (stereo not shown) [Example 3, 2-hydrazino deamino dihydrosphingosine-1-phosphate]
IC50 (rat liver aldolase): 800 nM

C=CC(N)(COP(=O)(O)O)C(O)CCCCCCCCCCCCCCC (stereo not shown) [Example 4, 2-vinyl dihydrosphingosine-1-phosphate]
IC50 (rat liver aldolase): 2400 nM
time dependent (irreversible) inhibitor of S-1-P aldolase (S-1-P aldolase [1]): time dependent (irreversible) inhibitor

CCCCCCCCCCCCC/C=C/[C@@H](O)[C@@H](N)COP(=O)(O)O [Example S-1-P, sphingosine-1-phosphate]
mitogenic effect in Swiss 3T3 fibroblasts (Swiss 3T3 fibroblasts): very potent mitogen
translocation of calcium from intracellular stores [2]: rapid translocation of calcium from intracellular stores

CCCCCCCCCCCCCCCC(O)C(N)CP(=O)(O)O (stereo not shown) [DS-1-P, dihydrosphingosine-1-phosphonate]
inhibition of the S-1-P aldolase reaction (S-1-P aldolase [3]): competitive inhibition
toxicity (permeabilized cells): highly toxic; also recorded: well known toxin
